A short description of this data set: photoluminescence quantum yield (fraction); solvent given as SMILES.
[1] abbreviates: in c1cc(-c2cccc(-n3c4ccccc4c4ccccc43)c2)cc(-n2c3ccccc3c3ccccc32)c1.

SMILES strings stand for the structures.

As for `C[Si]1(C)c2ccc(C#Cc3ccccc3)cc2C=Cc2cc(C#Cc3ccccc3)ccc21`, the photoluminescence quantum yield (in ClCCl) amounted to 0.36.
`COc1ccc(-c2ccc(/C=C/c3cnc4ccccc4n3)cc2)cc1` displayed a photoluminescence quantum yield (in ClCCl) of 0.42.
In the case of `Cc1ccc(C(=O)NN2C3=C(CC4=C2CCCC4=O)C(=O)CCC3)cc1`, the photoluminescence quantum yield reads like this: (in C1CCOC1) 0.31; (in CC#N) 0.55; (in CC(C)=O) 0.32; (in CCCCCO) 0.5; (in CO) 0.4; (in ClC(Cl)Cl) 0.77. This compound also registered a photoluminescence quantum yield (in ClCCl) of 0.44.
Turning to `COc1ccc2cc(/C=C/C3=[O+][B-](F)(F)OC(/C=C/c4ccc5cc(OC)ccc5c4)=C3c3ccccc3)ccc2c1`, under “in ClCCl”, the photoluminescence quantum yield stood at 0.51.
`CCN(CC)c1ccc(-c2nc3c(c4c2-c2ccc(C#N)cc2CC4)-c2ccc(C#N)cc2CC3)cc1` yielded a photoluminescence quantum yield (in C1CCOC1) of 0.74; a photoluminescence quantum yield (in CC#N) of 0.339; a photoluminescence quantum yield (in CCCCCC) of 0.209; a photoluminescence quantum yield (in CCOC(C)=O) of 0.565; a photoluminescence quantum yield (in CO) of 0.148; a photoluminescence quantum yield (in CS(C)=O) of 0.47. Besides, the photoluminescence quantum yield reads like this: (in Cc1ccccc1) 0.427; (in ClCCl) 0.842.
In the case of `N#Cc1ccc(Oc2ccc3c4c(cccc24)C(=O)N(CCO)C3=O)cc1`, the photoluminescence quantum yield (in ClC(Cl)Cl) amounted to 0.55.
Consider `CN(C)c1ccc(/C=C/C=C2\CC/C(=C\c3ccc(N(C)C)cc3)C2=O)cc1`, for which the photoluminescence quantum yield is 0.16 (in C1CCOC1); 0.29 (in CC#N); 0.31 (in CC(C)=O); 0.33 (in CC(C)O); 0.007 (in CCCCCC); 0.36 (in CCCCO). Besides, the photoluminescence quantum yield is, setting by setting: (in CCCCOC(C)=O) 0.16; (in CCCO) 0.34; (in CCO) 0.23; (in CCOC(=O)c1ccccc1) 0.24; (in CCOC(C)=O) 0.2; (in CCOCC) 0.073. Besides, the photoluminescence quantum yield by setting is: (in CN(C)C=O) 0.36; (in CO) 0.11; (in CS(C)=O) 0.4; (in Cc1ccccc1) 0.11; (in ClC(Cl)(Cl)Cl) 0.068; (in ClC(Cl)Cl) 0.27. Also, the photoluminescence quantum yield is, setting by setting: (in ClCCl) 0.36; (in Clc1ccccc1Cl) 0.24; (in S=C=S) 0.13; (in c1ccccc1) 0.13; (in c1ccncc1) 0.38.
For the setting “in ClCCl”, `CCOC(=O)/N=c1/oc2cc(OC)cc(OC)c2cc1C#N` returned a photoluminescence quantum yield of 0.059.
`Cc1cc(-c2ccc(-c3n(C)c4ccccc4[n+]3C)cc2)ccc1-c1ccc(-c2n(C)c3ccccc3[n+]2C)cc1` returned a photoluminescence quantum yield (in O) of 0.65.
For the setting “in ClCCl”, `COc1cccc2cc(C)c3c4ccccc4n(C)c3c12` registered a photoluminescence quantum yield of 0.215.
Turning to `N#Cc1ccc(/C=C2\N=C(c3ccccc3)OC2=O)cc1`, the photoluminescence quantum yield (in C1COCCO1) was found to be 0.028.
On to `CN1/C(=C/C=C(/C=C/C2=[N+](C)c3ccccc3C2(C)C)c2cccc(C(F)(F)F)c2)C(C)(C)c2ccccc21`, for which the photoluminescence quantum yield (in CCO) was 0.11 and the photoluminescence quantum yield (in CS(C)=O) came to 0.16.
Under “in CCO”, `Oc1cccc(O)c1-c1c2ccc(=[N+]3CCCCC3)cc-2oc2cc(N3CCCCC3)ccc12` had a photoluminescence quantum yield of 0.26.
As for `CCN(CC)c1ccc2cc(-c3ccc(-c4ccc5ccc6c(-c7ccc(-c8cc9ccc(N(CC)CC)cc9oc8=O)cc7)ccc7ccc4c5c76)cc3)c(=O)oc2c1`, the photoluminescence quantum yield (in ClC(Cl)Cl) was found to be 0.893.
On to `c1cc2c3c(c1)OCCCCCCCOc1cccc(c1-c1c4ccccc4c-3c3ccccc13)OCCCCCCCO2`, for which the photoluminescence quantum yield (in C1CCCCC1) came to 0.98.
In the case of `CN(CC(O)c1cccc(O)c1)c1ccc([N+](=O)[O-])c(C2CC(c3cccc4ccccc34)=NN2c2ccccc2)c1` (configuration not stated), the photoluminescence quantum yield was found to be 0.16 (in C1CCCCC1); 0.27 (in C1CCOC1); 0.5 (in C1COCCO1); 0.25 (in CC#N); 0.17 (in CC(C)O); 0.25 (in CCOC(C)=O). Moreover, the photoluminescence quantum yield is, setting by setting: (in CCOCC) 0.23; (in CO) 0.19; (in Cc1ccccc1) 0.18; (in ClC(Cl)Cl) 0.22; (in O) 0.16.
Regarding `CCOC(=O)CN(CC(=O)OCC)c1ccc(-c2cc(-c3ccncc3)nc(-c3ccncc3)c2)cc1`, the photoluminescence quantum yield reads like this: (in CC#N) 0.3; (in CCOC(C)=O) 0.48; (in CN(C)C=O) 0.2; (in CS(C)=O) 0.23; (in c1ccccc1) 0.5.
Consider `CCn1c(-c2ccc(-c3cccc4ccccc34)cc2)c(-c2ccc3ccccc3c2)c(-c2ccc3ccccc3c2)c1-c1ccc(-c2cccc3ccccc23)cc1`, for which the photoluminescence quantum yield (in CCOC(C)=O) worked out at 0.35.
In turn, `Cc1ccc(N2C(c3ccccc3[N-]S(=O)(=O)c3ccc(C)cc3)=[NH+]C(c3ccccc3)C2c2ccccc2)cc1` (configuration not stated) had a photoluminescence quantum yield (in Cc1ccccc1) of 0.396.
Take `Cc1cc2cc(N3c4ccccc4Oc4ccccc43)ccc2c(=O)o1`: under setting [1], the photoluminescence quantum yield was 0.47.
For `COC(=O)C(CCCCNC(=O)CCNc1cccc2ccccc12)NC(C)=O` (configuration not stated), the photoluminescence quantum yield (in CCO) worked out at 0.54.
The compound `COc1ccc(N(c2ccc(OC)cc2)c2cc(N(c3ccc(OC)cc3)c3ccc(OC)cc3)c3ccc4cc(C(C)(C)C)cc5ccc2c3c54)cc1` yielded a photoluminescence quantum yield (in ClCCl) of 0.6.
Same read-out and setting: the result for `c1ccc(-c2nc(-c3ccc(N4c5ccccc5Oc5ccccc54)cc3)nn2-c2ccc(N3c4ccccc4Oc4ccccc43)cc2)nc1` reads 0.11.
In the case of `Nc1cccc2c1C(=O)NC2=O`, the photoluminescence quantum yield is, setting by setting: (in C1CCOC1) 0.97; (in CCO) 0.74; (in CN(C)C=O) 0.66.
Regarding `Cc1ccc(S(=O)(=O)/N=c2\oc3cccc4c5c(-c6ccccc6)oc6cccc(c(c2-c2ccccc2)c34)c65)cc1`, the photoluminescence quantum yield (in ClC(Cl)Cl) was determined as 0.64.
Take `O=C([O-])c1c(Cl)c(Cl)c(Cl)c(Cl)c1-c1c2cc(I)c(=O)c(I)c-2oc2c(I)c([O-])c(I)cc12`: the photoluminescence quantum yield came to 0.14 (in CC(C)O), 0.11 (in CCO), 0.08 (in CO) and 0.018 (in O).
Compound `Cc1ccc2c(c1)c(C#N)c(C#N)c1cc(C)ccc12` displayed a photoluminescence quantum yield (in ClC(Cl)Cl) of 0.15.
On to `Brc1ccc2[nH]c(-c3ccc(-c4ccc(-c5ccc(-c6nc7cc(Br)ccc7[nH]6)cc5)cc4)cc3)nc2c1`, for which the photoluminescence quantum yield (in CN(C)C=O) is 0.42.
`CC1(C)c2ccccc2-c2ccc(N3c4ccc(-c5ccc(/C=C6\C(=O)c7ccc(C(=O)O)cc7C6=O)s5)cc4C4CCCC43)cc21` (configuration not stated) yielded a photoluminescence quantum yield (in ClC(Cl)Cl) of 0.18.
On to `Cn1c(=O)cc(C(=O)c2ccccc2)c2sc(-c3ccc(C(F)(F)F)cc3)cc21`, for which the photoluminescence quantum yield turned out to be 0.8 (in CC#N) and 0.82 (in ClCCl).
For `COc1ccc(C)cc1C1=C2C=CC(=[N+](C)C)C=C2[Si](C)(C)c2cc(N(C)C)ccc21`, the photoluminescence quantum yield (in O) was 0.28.
Take `CCCCCCCCN1c2ccccc2Sc2cc(/C=C/c3ccc(N(c4ccc(/C=C/c5ccc6c(c5)Sc5ccccc5N6CCCCCCCC)cc4)c4ccc(/C=C/c5ccc(/C=C/c6ccc(N(c7ccc(/C=C/c8ccc9c(c8)Sc8ccccc8N9CCCCCCCC)cc7)c7ccc(/C=C/c8ccc9c(c8)Sc8ccccc8N9CCCCCCCC)cc7)cc6)c6nsnc56)cc4)cc3)ccc21`: the photoluminescence quantum yield by setting is: (in C1CCOC1) 0.024; (in CCOC(C)=O) 0.125; (in CN(C)C=O) 0.001; (in Cc1ccccc1) 0.278; (in ClC(Cl)Cl) 0.061; (in ClCCl) 0.003.
For `c1ccc2c(c1)ccc1ccc3c(c12)-c1c(ccc2ccc4ccccc4c12)C3`, the photoluminescence quantum yield (in ClCCl) amounted to 0.39.
With `CC(C)[Si](C#Cc1c2cc3ccccc3cc2c(C#Cc2ccc(Br)cc2)c2cc3ccccc3cc12)(C(C)C)C(C)C`, the photoluminescence quantum yield (in ClCCl) stood at 0.12.
Same read-out and setting: the result for `COc1ccc2c(c1)CCC1=C(C#Cc3cc4ccccc4c4ccccc34)O[B-](F)(F)[O+]=C12` reads 0.425.
For the compound `O=C1c2cc(-n3c4ccccc4c4ccccc43)ccc2S(=O)(=O)c2ccc(-n3c4ccccc4c4ccccc43)cc21`, under setting [1], the photoluminescence quantum yield turned out to be 0.348.
For `Cc1ccc2cc3cc(C)ncc3cc2c1`, the photoluminescence quantum yield (in CCO) was 0.48.
With `N#Cc1nn(-c2ccccc2Cl)nc1N1CCCC1`, the photoluminescence quantum yield (in CC#N) is 0.607.
For `CCOC(=O)CN1C(=O)C2=C(c3ccc(C#N)cc3)N(CC(=O)OCC)C(=O)C2=C1c1ccccc1`, the photoluminescence quantum yield was 0.75 (in CC#N), 0.51 (in CS(C)=O) and 0.43 (in Cc1ccccc1).
For the setting “in ClCCl”, `Cc1ccc(-c2c3nc(c(-c4ccc(C)cc4)c4ccc([nH]4)c(-c4ccc(OC(=O)C(C)c5ccc(Oc6ccccc6)cc5)cc4)c4nc(c(-c5ccc(C)cc5)c5ccc2[nH]5)C=C4)C=C3)cc1` (configuration not stated) had a photoluminescence quantum yield of 0.128.
In turn, `O=S(=O)([O-])c1ccccc1/C=C/c1ccc(-c2nnc(-c3ccc(/C=C/c4ccccc4S(=O)(=O)[O-])cc3)o2)cc1` gave a photoluminescence quantum yield (in C1CCOC1) of 0.22, a photoluminescence quantum yield (in CC(C)=O) of 0.17 and a photoluminescence quantum yield (in CN(C)C=O) of 0.75.
On to `N#Cc1cccc(N2c3ccccc3C(c3ccccc3)(c3ccccc3)c3ccccc32)c1`, for which the photoluminescence quantum yield (in Cc1ccccc1) was 0.1.
On to `CC1(C)CC(NCc2ccc3ccc4cccc5ccc2c3c45)CC(C)(C)N1[O]`, for which the photoluminescence quantum yield is, setting by setting: (in C1CCCCC1) 0.07; (in CC#N) 0.03; (in CO) 0.04; (in ClC(Cl)Cl) 0.02.
The compound `COc1ccccc1-c1nc2c([nH]1)C1=CC(=O)S[C@]1(C)[C@@]1(C)SC(=O)C=C21` had a photoluminescence quantum yield (in CC#N) of 0.11.

Values taken from the Deep4Chem optical property database.
